According to US10633386B2, “BET protein degraders” (THE REGENTS OF THE UNIVERSITY OF MICHIGAN, priority 2016, dated 2020):

Key:
TNBC cell lines = experiment: Combination apoptosis induction (immunoblotting and/or Annexin-PI staining); format: cell-based; details: TNBC cell lines (FIGS. 15 and 16; ABT-263 data not shown)
Description: Immunoblotting and/or Annexin-PI staining confirmed that BM-1197 (250 nM), ABT-263 (250 nM), and A-1155463 (250 nM) potentiated Cpd. No. 4-induced apoptosis (50 nM) in MDA-MB-468 (FIG. 14) and other TNBC cell lines (data not shown). Synergistic induction of apoptosis by Cpd. […] No. 4-induced apoptosis in these cell lines. […] A with either BM-1197 (FIGS. 15 and 16) or ABT-263 (data not shown). […] No. 4 and BM-1197 was also detected in additional TNBC cell lines responsive to Cpd. No. 4-induced apoptosis (BT-20 and MDA-MB-157) (data not shown), further supporting that BCL-XL inhibitors potentiate Cpd. No. 4-induced apoptosis in TNBC.

Mono-Mac6 = experiment: Cell growth inhibition (CellTiter-Glo), leukemia line Mono-Mac6; format: cell-based; details: Homo sapiens, MONO-MAC-6
Description: (§1) Cell growth inhibitory activity of representative BET bromodomain degraders in representative non-small cell lung cancer cell lines was determined using the CellTiter-Glo® Luminescent Cell Viability Assay. Cells were seeded in 384-well white opaque cell culture plates at a density of 2,000 cells/well with serially diluted compounds and incubated at 37° C. in an atmosphere of 95% air and 5% CO2 for 4 days. Cell viability was determined using the CellTiter-Glo® Luminescent Cell Viability Assay Kit (Promega, Madison, Wis.) according to the manufacture's instruction. Briefly, a volume of CellTiter-Glo® Reagent equal to the volume of cell culture medium was added to each well, and then the plates were incubated at room temperature for 10-20 minutes. The luminescent signal was measured using a Tecan Infinite M1000 multimode microplate reader (Tecan, Morrisville, N.C.). The half maximal inhibitory concentration (IC50) was calculated using the GraphPad Prism 5 software (GraphPad Software, La Jolla, Calif.). Cpd. A is a BET bromodomain inhibitor, see U.S. Appl. No. 62/121,637, having the following structure: Cell growth inhibitory activity of representative BET bromodomain degraders in representative leukemia cell lines, see Table 8, was determined as described in Example 17.

K61 = experiment: Cell growth inhibition (CellTiter-Glo), leukemia line K61; format: cell-based
Description: as §1

MDA-MB-231 xenograft = experiment: In vivo antitumor activity in MDA-MB-231 xenograft model (Example 25); design: species or system SCID mice
Description: (§2) For the in vivo efficacy experiments of this example, when tumors reached 80-200 mm^3, SCID mice were randomized into groups. Cpd. A, Cpd. No. 4, Cpd. No. 6, or vehicle control (10% PEG400: 3% Cremophor: 87% PBS, or 2% TPGS:98% PEG200) was given at the dose and duration indicated. Tumor sizes and animal weights were measured 2-3 times per week. Tumor volume (mm^3)=(length×width^2)/2. Tumor growth inhibition was calculated as TGI (%)=(Vc−Vt)/(Vc−Vo)*100, where Vc, Vt are the median of control and treated groups at the end of the study and Vo at the start. All the in vivo studies were performed under an animal protocol approved by the University Committee on Use and Care of Animals of the University of Michigan, in accordance with the recommendations in the Guide for the Care and Use of Laboratory Animals of the National Institutes of Health.
(§3) No. 4 was determined in xenograft tumor models of TNBC cell lines.

MCL1 protein = experiment: PD analysis of MCL1 protein in WHIM24 tumors; format: in vivo, mice; details: at as early as 3 h after treatment (data not shown)
Description: (§4) Cpd. […] A at 50 mg/kg, daily, oral dosing, 5 days a week for 3 weeks. Cpd. […] Neither Cpd. A nor Cpd. No. 4 caused significant weight loss (data not shown) or apparent toxicity in this model. […] No. 4 (10 mg/kg) reduced the levels of BET proteins by >80% at as early as 1 h and this effect lasted for at least 9 h in WHIM24 tumors (data not shown). […] No. 4 treatment (data not shown). […] No. 4 is reversible once the drug is cleared from the tumor tissue.

AML-5 = experiment: Cell growth inhibition (CellTiter-Glo), leukemia line AML-5; format: cell-based; details: AML-5 leukemia cell line
Description: as §1

RS4; 11 = experiment: Cell growth inhibition (CellTiter-Glo), leukemia line RS4; 11; format: cell-based; details: Homo sapiens, 11 leukemia cell line
Description: as §1

AML-3 = experiment: Cell growth inhibition (CellTiter-Glo), leukemia line AML-3; format: cell-based; details: AML3; AML-3 leukemia cell line
Description: as §1

AML-193 = experiment: Cell growth inhibition (CellTiter-Glo), leukemia line AML-193; format: cell-based; details: AML-193 leukemia cell line
Description: as §1

MOLM16 = experiment: Cell growth inhibition (CellTiter-Glo), leukemia line MOLM16; format: cell-based
Description: as §1

MDA-MB-468 xenograft = experiment: In vivo antitumor activity in MDA-MB-468 xenograft model; design: species or system SCID mice
Description: as §2, §3

SKML = experiment: Cell growth inhibition (CellTiter-Glo), leukemia line SKML; format: cell-based
Description: as §1

[1] = Pharmacokinetics (PK) analysis in tumor bearing mice; format: in vivo
Description: as §4

| SMILES | synergism with either BM-1197 or ABT-263 (TNBC cell lines) | IC50 (Mono-Mac6) [nM] | IC50 (K61) [nM] | antitumor activity (MDA-MB-231 xenograft; MDA-MB-231 model, 10 mg/kg, IV, 3 times per week for 2-3 weeks (FIG. 10)) | tumor growth (MDA-MB-231 xenograft; MDA-MB-231 xenograft model in mice (FIG. 10)) | MCL1 protein levels in tumors (MCL1 protein) | IC50 (AML-5) [nM] | IC50 (RS4; 11) [nM] | IC50 (AML-3) [nM] | IC50 (AML-193) [nM] | IC50 (MOLM16) [nM] | antitumor activity (MDA-MB-468 xenograft; MDA-MB-468 model, 10 mg/kg, IV, 3 times per week for 2-3 weeks (FIG. 11)) | tumor growth (MDA-MB-468 xenograft; MDA-MB-468 xenograft model in mice (FIG. 11)) | IC50 (SKML) [nM] | drug exposure in the xenograft tumor tissue ([1]; MDA-MB-231 and MDA-MB-468 models (data not shown)) | drug exposure in the WHIM24 xenograft tumor tissue ([1]; WHIM24 model) | drug concentrations in both plasma and tumors over time ([1]; single dose 10 mg/kg, WHIM24 tumor bearing mice (data not shown)) | drug exposure in plasma and WHIM24 tumors ([1]; single dose 10 mg/kg, tumor bearing mice, at 1 and 3 h (data not shown)) |
| --- | --- | --- | --- | --- | --- | --- | --- | --- | --- | --- | --- | --- | --- | --- | --- | --- | --- | --- |
| CCn1nc(C2CC2)cc1Nc1nc(COC)nc2[nH]c3cc(-c4c(C)noc4C)c(OC)cc3c12 [Cpd. A, reference compound] | No clear synergism | – | – | – | – | – | – | – | – | – | – | – | – | – | – | – | – | – |
| CCn1nc(C2CC2)cc1Nc1nc(C(=O)NCCCOCCOCCOCCCNc2cccc3c2C(=O)N(C2CCC(=O)NC2=O)C3=O)nc2[nH]c3cc(-c4c(C)noc4C)c(OC)cc3c12 (stereo not drawn) [Cpd. No. 4] | – | 1400 | 11800 | limited or no antitumor activity | reduce tumor growth | markedly reduced | 500 | 50 | 400 | 40 | 300 | limited or no antitumor activity | reduce tumor growth | 200 | limited drug exposure | good drug exposure | diminished rapidly | reasonable drug exposure |
